The source of these data is patent publication US20110008302A1, “Compositions and methods for immortalizing cells and screening for anti-cancer agents” (priority 2007, published 2011).

For assay [1], the system named is MEFs. Kind of assay: Oxidant/antioxidant treatment of MEFs, Ezh2 Western blot. As to conditions: NAC 5 mM, Trolox 1 mM, H2O2 0.5 or 1 mM. In kind it is cell-based, mouse. The protocol:
MEFs were treated with NAC (5 mM), Trolox (1 mM) or H2O2 (0.5 or 1 mM). Nuclear extracts were probed with antibodies specific for Ezh2 and for CREB, levels of which served as loading control.
(§1) TROLOX ((±)-6-Hydroxy-2,5,7,8-tetramethylchromane-2-carboxylic acid, (Sigma, catalog number 238813), NAC (N-Acetyl-L-cysteine, Sigma, catalog number A9165), H2O2 (Sigma, catalog number H-1009) and PD173074 (N-[2-[[4-(Diethylamino)butyl]amino]-6-(3,5-dimethoxyphenyl)pyrido[2,3-d]pyrimidin-7-yl]-N′-(1,1-dimethylethyl) urea, FGFR-1/3 inhibitor, TOCRIS Bioscience, catalog number 3044) were added directly in the culture at the indicated concentrations.
For orientation: In western blotting, separated proteins are transferred to a membrane and probed.

The subject of assay [2] is Ndy1. Kind of assay: siRNA knock down in MEFs (Western blot, real time PCR of p16Ink4a, p19Arf, Ezh2, miR-101). In kind it is cell-based, mouse. As to conditions: passage 3 MEFs, knock down of the short form of Ndy1. The protocol: At a time point four days after transfection cells were analyzed by Western blotting and total mRNA was collected and analyzed by real-time PCR with primers specific for p16^Ink4a and p19^Arf and primers specific for the long and short forms of Ndy1. (n=3)*p<0.05
MEFs overexpressing Ndy1 or Ndy2 and MEFs in which Ndy1 was knocked down with siRNA (1433-[…]-1454, SEQ ID NO: 1), were monitored for senescence by light microscopy and β-galactosidase staining and by cell counting at each passage. Transfection of siRNA was carried out using Lipofectamine 2000 (Invitrogen; Carlsbad, Calif.). Knockdown of Ndy1 was confirmed by Western blotting and real time RTPCR.
For siRNA. MEFs transfected with Ndy1 (1433-[…]-1454; SEQ ID NO: 51) or control siRNA (Dharmacon) were plated at 10^5 cells per 6 cm dish and 3-4 days later were harvested and analyzed (Pfau, R., et al. (2008) Proc Natl Acad Sci USA 105, 1907-12, incorporated herein by reference in its entirety). MEFs were transfected with the help of Lipofectamine 2000 (Invitrogen). To specifically knock down the short form of Ndy1 the following siRNA were used: 5′-[…]-′3 (SEQ ID NO: 52) which specifically targets the exon1 of the v2 isoform of Ndy1 (NM_013910). siRNAs for Ezh2 (a mix of two siRNAs form Applied Biosystems, #AM16708 siID #157427 and #157426) and Bmi-1 (Santa Cruz Biotechnologies, # sc-29815) were used in a final concentration of 80 nM.

Assay [3] has as its system WIDR cells. In words: PD173074 treatment of WIDR cells (Western blot, real time RT-PCR). In kind it is cell-based, human. The protocol: WIDR cell were treated with 0.5 μM PD173074 or carrier for 24 hours. (upper) Nuclear and cytoplasmic extracts were probed with antibodies specific for each of Ndy1, Ezh2 and phosphoERK antibodies. CREB and ERK levels served as loading controls. (lower) miR-101 levels were measured with real time RT-PCR; U6 small nuclear RNA levels were used as internal control. Data are expressed as mean±SD.
WIDR cells were transduced with an HA.Ndy1 overexpression construct or the empty vector (EV), and were subsequently treated with 0.5 μM PD173074 or carrier for 24 hours. (upper) Nuclear extracts were probed with antibodies specific for each of with HA-tag (exogenous Ndy1), Ndy1 (both endogenous and exogenous Ndy1) and Ezh2. CREB levels served as loading controls. (lower) miR-101 levels were measured with real time RT-PCR; U6 small nuclear RNA levels were used as internal controls. Data are expressed as mean±SD.
as §1
(§2) As a next step, FGF signaling was examined to determine importance for Ezh2 upregulation by Ndy1 in these cells. To address this issue, TCCSUP or WIDR cells, two of the above five cell lines, were treated with PD173074, an inhibitor of both FGFR1 and both FGFR3.
(§3) To examine if ectopic expression of Ndy1 reverses the effects of PD173074, namely miR-101 upregulation and Ezh2 downregulation, TCCSUP or WIDR cells were transduced with a pBabe-based retroviral Ndy1 overexpression construct. Cells transduced with the empty pBabe vector were used as control. The engineered cells were subsequently treated with PD173074. Nuclear lysates from these cells were probed with antibodies specific for each of HA-tag (exogenous Ndy1), Ndy1 (both exogenous and endogenous), Ezh2, and CREB. RNA isolated from the same cells was used to measure miR-101 levels with real time RT-PCR.

Assay [4] has as its system TCCSUP cells. Kind of assay: PD173074 treatment of TCCSUP cells (Western blot, real time RT-PCR). In kind it is cell-based, human. The protocol:
TCCSUP cells were treated with 0.5 μM PD173074 or carrier for 24 hours. (upper) Nuclear and cytoplasmic extracts were probed with antibodies specific for each of Ndy1, Ezh2 and phosphoERK. CREB and ERK levels served as loading controls. (lower) miR-101 levels were measured with real time RT-PCR; U6 small nuclear RNA levels were used as internal control. Data are expressed as mean±SD.
TCCSUP cells were transduced with an HA.Ndy1 overexpression construct or with the empty vector (EV), and were subsequently treated with 0.5 μM PD173074 or carrier for 24 hours. (upper) Nuclear extracts were probed with antibodies specific for each of HA-tag (exogenous Ndy1), Ndy1 (both endogenous and exogenous Ndy1) and Ezh2. CREB levels served as loading control. (lower) miR-101 levels were measured with real time RT-PCR; U6 small nuclear RNA levels were used as internal control. Data are expressed as mean±SD.
as §1, §2, §3

Assay [5] deals with MEFs. In words: Stimulation of serum-starved MEFs with growth factors or serum (Ezh2, Ndy1, miR-101 levels). In kind it is cell-based, mouse. As to conditions: serum-starved MEFs, 24 hours after stimulation; for Ezh2 expression: 20 ng/ml (serum 10%). As to the method: MEFs were transfected with control siRNA and stimulated with serum (10%) for 1, 4, 12 and 18 hours. (upper) Nuclear extracts were probed with antibody specific for Ezh2 and for CREB, levels of which served as loading control. (lower) Ndy1 and Ezh2 mRNA levels were measured with real time RT-PCR; GAPDH mRNA levels were used as internal control. Data are expressed as mean±SD.
Serum starved MEFs were stimulated with each of FGF-2 (20 ng/ml), IGF-1 (20 ng/ml), PDGF (20 ng/ml), serum (10%), VEGF (20 ng/ml), EGF (20 ng/ml) or TNFα (50 ng/ml). Nuclear extracts were probed with antibody specific for Ezh2 and for CREB, levels of which served as loading control.
Data are expressed as mean±SD.
MEFs transfected with control siRNA were stimulated with FGF-2 for 1, 4, 12 or 18 hours. (upper) Nuclear extracts were probed with antibody specific for Ezh2. CREB levels served as loading control. (middle) Ndy1 and Ezh2 mRNA were measured with real time RT-PCR; GAPDH mRNA levels were used as internal control. Data are expressed as mean±SD. (lower) miR-101 levels were measured with real time RT-PCR; U6 small nuclear RNA levels were used as internal control. Data are expressed as mean±SD.
For stimulation with FGF-2 (Cell signalling, catalog number 8910), IGF-1 (R&D Systems, catalog number 791-MG), PDGF (Cell signalling, catalog number 9909), VEGF (R&D systems, catalog number 493-MV), EGF (R&D systems, catalog number 236-EG), TNFα (Cell Signalling, catalog number 2169), cells were serum starved for 16 hours and growth factors were added at a final concentration of 20 ng/ml each, for 24 hours.
To identify a pathway regulating Ezh2 expression via the Ndy1/miR-101 axis, serum-starved MEFs were stimulated with FGF-2, IGF-1, PDGF, EGF, VEGF, TNFα or serum and were examined for expression of Ezh2, Ndy1 and miR-101 before and 24 hours after stimulation. […] This was confirmed with analyses in which FGF-2 was used to stimulate serum-starved MEFs transfected with a control siRNA or siRNA for Ndy1 (FIG. 36).

[6] abbreviates: WIDR cells overexpressing HA.Ndy1, 0.5 μM, 24 hours.
[7] abbreviates: TCCSUP cells overexpressing HA.Ndy1, 0.5 μM, 24 hours.

As for `OO` [H2O2], the Ezh2 protein levels result in assay [1] is recorded as “no effect”.
Same read-out and setting: under `CC(=O)N[C@@H](CS)C(=O)O` [NAC, N-Acetyl-L-cysteine] stands “no effect”.
As to “5′-CCGAGGACGACGACUAUGAUU-′3 [Ndy1 short form siRNA]”, in assay [2], the p16Ink4a result is given as “did not upregulate significantly” and the p19Arf entry is “did not upregulate significantly”.
`CCN(CC)CCCCNc1ncc2cc(-c3cc(OC)cc(OC)c3)c(NC(=O)NC(C)(C)C)nc2n1` [PD173074, N-[2-[[4-(Diethylamino)butyl]amino]-6-(3,5-dimethoxyphenyl)pyrido[2,3-d]pyrimidin-7-yl]-N′-(1,1-dimethylethyl) urea]: the “FGF signaling (level of ERK1/2 phosphorylation)” value in assay [3] (WIDR cells) is on record as “blocked”. In assay [3] (setting [6]), the “effect on Ezh2” value is reported as “abrogated” and the “effect on miR-101” value is “abrogated”. Further, in assay [3] (WIDR cells, 0.5 μM, 24 hours), the Ezh2 protein level entry was “downregulates”, the Ndy1 protein level result is reported as “downregulates” and the miR-101 levels result was “upregulates”. Besides, the “FGF signaling (level of ERK1/2 phosphorylation)” value in assay [4] (TCCSUP cells) is “blocked”. Also, in assay [4] (setting [7]), the “effect on Ezh2” value is “abrogated” and the “effect on miR-101” value is “abrogated”. Moreover, in assay [4] (TCCSUP cells, 0.5 μM, 24 hours), the Ezh2 protein level entry is “downregulates”, the Ndy1 protein level result is reported as “downregulates” and the miR-101 levels entry is “upregulates”.
For `Cc1c(C)c2c(c(C)c1O)CCC(C)(C(=O)O)O2` (racemic) [Trolox, (±)-6-Hydroxy-2,5,7,8-tetramethylchromane-2-carboxylic acid], the Ezh2 protein levels result in assay [1] is reported as “no effect”.
Consider PDGF, for which, in assay [5], the “level at which Ezh2 expression is induced” value was “at both the RNA and protein levels”; the Ezh2 expression result is recorded as “significantly upregulated”.
As for VEGF, in assay [5], the “expression of Ndy1” value is “only moderate”, the “level at which Ezh2 expression is induced” value is given as “primarily at the protein level”, the miR-101 entry is recorded as “downregulating” and the Ezh2 expression result is “significantly upregulated”.
IGF-1: growth factor, R&D Systems: in assay [5], the “level at which Ezh2 expression is induced” value was “at both the RNA and protein levels”; the Ezh2 expression result is recorded as “significantly upregulated”.
